Assays:
Assay type in all cases: cell-based, human
K-562 = experiment: NCI60 antitumor screening; settings: for GI%: 10 μM one-dose, Table 1; for inhibition at 10 µM: Homo sapiens, 10 μM single dose, (leukaemia), read-out: growth inhibition percent (GI%)
SR = experiment: NCI60 antitumor screening; settings: for GI%: 10 μM one-dose, Table 1; for inhibition at 10 µM: Homo sapiens, 10 μM single dose, SR (leukaemia), read-out: growth inhibition percent (GI%)
EKVX = experiment: NCI60 antitumor screening; settings: Homo sapiens; 10 μM single dose; EKVX (non-small cell lung cancer); read-out: growth inhibition percent (GI%)
HOP-62 = experiment: NCI60 antitumor screening; settings: for GI%: 10 μM one-dose, Table 1; for inhibition at 10 µM: Homo sapiens, 10 μM single dose, HOP-62 (non-small cell lung cancer), read-out: growth inhibition percent (GI%)
NCI-H322M = experiment: NCI60 antitumor screening; settings: Homo sapiens; 10 μM single dose; NCI-H322M (non-small cell lung cancer); read-out: growth inhibition percent (GI%)
NCI-H460 = experiment: NCI60 antitumor screening; settings: Homo sapiens; 10 μM single dose; NCI-H460 (non-small cell lung cancer); read-out: growth inhibition percent (GI%)
COLO 205 = experiment: NCI60 antitumor screening; settings: Homo sapiens; 10 μM single dose; COLO 205 (colon cancer); read-out: growth inhibition percent (GI%)
HCT-116 = experiment: NCI60 antitumor screening; settings: Homo sapiens; 10 μM single dose; HCT-116 (colon cancer); read-out: growth inhibition percent (GI%)
SW-620 = experiment: NCI60 antitumor screening; settings: Homo sapiens; 10 μM single dose; SW-620 (colon cancer); read-out: growth inhibition percent (GI%)
SF-539 = experiment: NCI60 antitumor screening; settings: for GI%: 10 μM one-dose, Table 1; for inhibition at 10 µM: Homo sapiens, 10 μM single dose, SF-539 (CNS cancer), read-out: growth inhibition percent (GI%)
U251 = experiment: NCI60 antitumor screening; settings: Homo sapiens, U-251; 10 μM single dose; U251 (CNS cancer); read-out: growth inhibition percent (GI%)
LOX IMVI = experiment: NCI60 antitumor screening; settings: Homo sapiens; 10 μM single dose; LOX IMVI (melanoma); read-out: growth inhibition percent (GI%)
MALME-3M = experiment: NCI60 antitumor screening; settings: Homo sapiens; 10 μM single dose; MALME-3M (melanoma); read-out: growth inhibition percent (GI%)
MDA-MB-435 = experiment: NCI60 antitumor screening; settings: Homo sapiens; 10 μM single dose; MDA-MB-435 (melanoma); read-out: growth inhibition percent (GI%)
SK-MEL-28 = experiment: NCI60 antitumor screening; settings: Homo sapiens; 10 μM single dose; SK-MEL-28 (melanoma); read-out: growth inhibition percent (GI%)
OVCAR-4 = experiment: NCI60 antitumor screening; settings: for GI%: 10 μM one-dose, Table 1; for inhibition at 10 µM: Homo sapiens, 10 μM single dose, OVCAR-4 (ovarian cancer), read-out: growth inhibition percent (GI%)
NCI/ADR-RES = experiment: NCI60 antitumor screening; settings: Homo sapiens; 10 μM single dose; NCI/ADR-RES (ovarian cancer); read-out: growth inhibition percent (GI%)
A498 = experiment: NCI60 antitumor screening; settings: Homo sapiens; 10 μM single dose; A498 (renal cancer); read-out: growth inhibition percent (GI%)
MDA-MB-231/ATCC = experiment: NCI60 antitumor screening; settings: Homo sapiens; 10 μM single dose; MDA-MB-231/ATCC (breast cancer); read-out: growth inhibition percent (GI%)
HS 578T = experiment: NCI60 antitumor screening; settings: for GI%: 10 μM one-dose, Table 1; for inhibition at 10 µM: Homo sapiens, 10 μM single dose, HS 578T (breast cancer), read-out: growth inhibition percent (GI%)
T-47D = experiment: NCI60 antitumor screening; settings: Homo sapiens, T47D; 10 μM single dose; T-47D (breast cancer); read-out: growth inhibition percent (GI%)
NCI60 cell lines panel = experiment: NCI60 antitumor screening, full panel; settings: for inhibition at 10 µM: Homo sapiens, 10 μM single dose, mean over NCI60 cell lines, read-out: Mean growth inhibition percent (GI%)
How it was run: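 Single-concentration screen at 10 μM across the NCI60 panel (leukaemia, NSCLC, colon, CNS, melanoma, ovarian, renal, prostate, breast). Results are expressed as percent growth inhibition (GI%) of treated lines.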

Row | SMILES | inhibition at 10 µM (K-562) | inhibition at 10 µM (SR) | inhibition at 10 µM (EKVX) | inhibition at 10 µM (HOP-62) | inhibition at 10 µM (NCI-H322M) | inhibition at 10 µM (NCI-H460) | inhibition at 10 µM (COLO 205) | inhibition at 10 µM (HCT-116) | inhibition at 10 µM (SW-620) | inhibition at 10 µM (SF-539) | inhibition at 10 µM (U251) | inhibition at 10 µM (LOX IMVI) | inhibition at 10 µM (MALME-3M) | inhibition at 10 µM (MDA-MB-435) | inhibition at 10 µM (SK-MEL-28) | inhibition at 10 µM (OVCAR-4) | inhibition at 10 µM (NCI/ADR-RES) | inhibition at 10 µM (A498) | inhibition at 10 µM (MDA-MB-231/ATCC) | inhibition at 10 µM (HS 578T) | also measured
1 | CN1CCN(c2nc(SCc3ccccc3)nc(-c3ccc(F)cc3)c2C#N)CC1 [4i, 2-(Benzylthio)-4-(4-fluorophenyl)-6-(4-methylpiperazin-1-yl) pyrimidine-5-carbonitrile] | 73.2% | 71% | 20.2% | 10.3% | 16% | 35.1% | 13.6% | 45.8% | 10% | 14.4% | < 10% | 25.4% | < 10% | 12.8% | < 10% | 22.5% | < 10% | 12.5% | 15.9% | 32% | GI% (K-562): 73.15%; GI% (SR): 70.98%; GI% (HOP-62): — (GI value > 70%); GI% (SF-539): — (GI value > 70%); GI% (OVCAR-4): — (GI value > 70%); GI% (HS 578T): — (GI value > 70%); inhibition at 10 µM (T-47D): 42.5%; inhibition at 10 µM (NCI60 cell lines panel): 24.3%
2 | CN1CCN(c2nc(SCc3ccc(F)cc3)nc(-c3ccc(F)cc3)c2C#N)CC1 [4j, 2-((4-Fluorobenzyl)thio)-4-(4-fluorophenyl)-6-(4-methylpiperazin-1-yl)pyrimidine-5-carbonitrile] | 18.5% | < 10% | 18.4% | 64.4% | 24.6% | < 10% | < 10% | 25.3% | < 10% | 54.8% | 26.2% | 22.9% | 39.5% | < 10% | 16.2% | 24.1% | 42.9% | < 10% | 45.8% | 60.4% | GI% (K-562): — (GI value > 70%); GI% (SR): — (GI value > 70%); GI% (HOP-62): — (GI value > 70%); GI% (SF-539): — (GI value > 70%); GI% (OVCAR-4): — (GI value > 70%); GI% (HS 578T): — (GI value > 70%); inhibition at 10 µM (T-47D): 18.3%; inhibition at 10 µM (NCI60 cell lines panel): 25.1%
3 | CN1CCN(c2nc(SCc3ccc([N+](=O)[O-])cc3)nc(-c3ccc(F)cc3)c2C#N)CC1 [4k, 4-(4-Fluorophenyl)-6-(4-methylpiperazin-1-yl)-2-((4-nitrobenzyl)thio)pyrimidine-5-carbonitrile] | 23.3% | < 10% | 22.4% | 26.3% | 26.3% | < 10% | < 10% | 18.4% | < 10% | 41% | < 10% | 20.9% | 27.2% | < 10% | 14.4% | < 10% | 25.1% | < 10% | 35.1% | 42.6% | inhibition at 10 µM (T-47D): 28.6%; One-dose activity over the NCI60 panel (NCI60 cell lines panel; 10 μM): moderate activity against numerous cell lines; inhibition at 10 µM (NCI60 cell lines panel): 17.5%

Reference: paper PMC10620772, “Design, synthesis, and biological evaluation of new pyrimidine-5-carbonitrile derivatives as novel anti-cancer, dual EGFR^WT/COX-2 inhibitors with docking studies” (RSC Advances, 2023)
